# Structures can show the parent of a compound that is named as a salt. Where two headings read alike, the source gives them in different places.
# Tested on: Acinetobacter baumannii ATCC17978
# Assay: Antimicrobial susceptibility testing: 90% growth inhibitory concentration (IC90) determination, Iso-Sensitest broth
# Type: cell-based
# Summary of the method: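 A. baumannii ATCC17978 grown in Iso-Sensitest broth across 10 compound concentrations at 35±2 °C.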
# [1] = 90% growth inhibitory concentration, Acinetobacter baumannii ATCC17978, Iso-Sensitest broth, OD 600 nm over 16 h, read-out: ATCC17978 IC90
# [2] = Acinetobacter baumannii, ATCC17978, 16 h, read-out: ATCC17978 IC90, 90% growth inhibitory concentration, Acinetobacter baumannii ATCC17978, Iso-Sensitest broth, OD 600 nm over 16 h
IC90 [1] [nM],Compound,IC90 [2] [nM]
180,"COc1ccc(-c2cnc3c(Nc4ccc(C(=O)N5CCC(C(=O)N6C[C@H](CO)[C@@H](O)[C@H](O)C6)CC5)c(C)c4)nccn23)c(F)c1F [Example 296, [4-[[3-(2,3-difluoro-4-methoxyphenyl)imidazo[1,2-a]pyrazin-8-yl]amino]-2-methylphenyl]-[4-[(3R,4R,5R)-3,4-dihydroxy-5-(hydroxymethyl)piperidine-1-carbonyl]piperidin-1-yl]methanone]",–
–,"Cc1cc(Nc2nccn3c(-c4ccc(OC(F)F)cc4)cnc23)ccc1C(=O)N1CCC(C(=O)NC[C@H]2CNC(=O)O2)CC1 [Example 298, 1-[4-[[3-[4-(difluoromethoxy)phenyl]imi-dazo[1,2-a]pyrazin-8-yl]amino]-2-methylbenzoyl]-N-[[(5S)-2-oxo-1,3-oxazolidin-5-yl]methyl]piperidine-4-carboxamide]",200
–,"Cc1cc(Nc2nccn3c(-c4ccc(OC(F)F)cc4)cnc23)ccc1C(=O)N1CCC(C(=O)NCC(O)CN)CC1 (stereo not shown) [Example 299, N-(3-amino-2-hydroxypropyl)-1-[4-[[3-[4-(difluoromethoxy)phenyl]imi-dazo[1,2-a]pyrazin-8-yl]amino]-2-methylbenzoyl]piperidine-4-carboxamide; hydrochloride]",200
210,"COc1ccc(-c2cnc3c(Nc4ccc(C(=O)N5CCC(C(=O)NC[C@H](O)[C@@H](O)[C@H](O)[C@H](O)CO)CC5)c(C)c4)nccn23)c(F)c1F [Example 300, 1-[4-[[3-(2,3-difluoro-4-methoxyphenyl)imidazo[1,2-a]pyrazin-8-yl]amino]-2-methylbenzoyl]-N-[(2S,3R,4R,5R)-2,3,4,5,6-pentahydroxyhexyl]piperidine-4-carboxamide]",–
–,"Cc1cc(Nc2nccn3c(-c4ccc(OC(F)F)cc4)cnc23)ccc1C(=O)N1CCC(N(C)CCN(C)C)CC1 [Example 301, [4-[[3-[4-(difluoromethoxy)phenyl]imi-dazo[1,2-a]pyrazin-8-yl]amino]-2-methylphenyl]-[4-[2-(dimethylamino)ethyl-methylamino]piperidin-1-yl]methanone]",720
3500,"COc1ccc(-c2cnc3c(Nc4ccc(C(=O)N5CCC(C(=O)NCCS(=O)(=O)O)CC5)c(C)c4)nccn23)cc1F [Example 303, 2-[[1-[4-[[3-(3-fluoro-4-methoxyphenyl)imidazo[1,2-a]pyrazin-8-yl]amino]-2-methylbenzoyl]piperidine-4-carbonyl]amino]ethanesulfo-nic acid]",–
110,"Cc1cc(Nc2nccn3c(-c4ccc(OCC#N)c(F)c4F)cnc23)ccc1C(=O)N1CCC(CCN)CC1 [Example 304, 2-[4-[8-[4-[4-(2-aminoethyl)piperidine-1-carbonyl]-3-methylanilino]imidazo[1,2-a]pyrazin-3-yl]-2,3-difluorophenoxy]acetonitrile]",–
100,"C#CCOc1ccc(-c2cnc3c(Nc4ccc(C(=O)N5CCC(C(=O)NCCCNC)CC5)c(C)c4)nccn23)c(F)c1F [Example 305, 1-[4-[[3-(2,3-difluoro-4-prop-2-ynoxyphenyl)imidazo[1,2-a]pyrazin-8-yl]amino]-2-methylbenzoyl]-N-[3-(methylamino)propyl]piperi-dine-4-carboxamide]",–
–,"Cc1cc(Nc2nccn3c(-c4ccc(OC(F)F)cc4)cnc23)ccc1C(=O)N1CCC(C(=O)NCC2CN(S(C)(=O)=O)C2)CC1 [Example 306, 1-[4-[[3-[4-(difluoromethoxy)phenyl]imi-dazo[1,2-a]pyrazin-8-yl]amino]-2-methylbenzoyl]-N-[(1-methylsulfonylazetidin-3-yl)methyl]piperidine-4-carboxamide]",95
97,"CNCC(=O)N1CCN(C(=O)c2ccc(Nc3nccn4c(-c5ccc(OC)c(F)c5Cl)cnc34)cc2C)CC1 [Example 307, 1-[4-[4-[[3-(2-chloro-3-fluoro-4-methoxyphenyl)imidazo[1,2-a]pyrazin-8-yl]amino]-2-methylbenzoyl]piperazin-1-yl]-2-(methylamino)ethanone; hy-drochloride]",–
110,"CNCC(=O)N1CCN(C(=O)c2ccc(Nc3nccn4c(-c5ccc(OC)c(F)c5F)cnc34)cc2C)CC1 [Example 308, 1-[4-[4-[[3-(2,3-difluoro-4-methoxyphenyl)imidazo[1,2-a]pyrazin-8-yl]amino]-2-methylbenzoyl]piperazin-1-yl]-2-(methylamino)ethanone; hy-drochloride]",–
–,"CCc1cc(Nc2nccn3c(-c4ccc(OCC#N)c(F)c4F)cnc23)ccc1C(=O)N1CCC(CCN)CC1 [Example 309, 2-[4-[8-[4-[4-(2-aminoethyl)piperidine-1-carbonyl]-3-ethylanilino]imidazo[1,2-a]pyrazin-3-yl]-2,3-difluorophenoxy]acetonitrile; formic acid]",130
–,"Cc1cc(Nc2nccn3c(-c4ccc(OC(F)F)cc4)cnc23)ccc1C(=O)N1CCC(C(=O)NCC2(F)CNC2)CC1 [Example 310, 1-[4-[[3-[4-(difluoromethoxy)phenyl]imi-dazo[1,2-a]pyrazin-8-yl]amino]-2-methylbenzoyl]-N-[(3-fluoroazetidin-3-yl)methyl]piperidine-4-carboxamide; hydrochloride]",140
–,"CN[C@@H](C)C(=O)N1CCN(C(=O)c2ccc(Nc3nccn4c(-c5ccc(OC(F)F)cc5)cnc34)cc2C)CC1 [Example 311, (2S)-1-[4-[4-[[3-[4-(difluoromethoxy)phenyl]imi-dazo[1,2-a]pyrazin-8-yl]amino]-2-methylbenzoyl]piperazin-1-yl]-2-(methylamino)propan-1-one; hydrochloride]",190
–,"Cc1cc(Nc2nccn3c(-c4ccc(OC(F)F)cc4)cnc23)ccc1C(=O)N1CCN(C(=O)C2CC3(CNC3)C2)CC1 [Example 312, [4-(2-azaspiro[3.3]heptane-6-carbonyl)piperazin-1-yl]-[4-[[3-[4-(difluoromethoxy)phenyl]imi-dazo[1,2-a]pyrazin-8-yl]amino]-2-methylphenyl]methanone; hy-drochloride]",220
–,"Cc1cc(Nc2nccn3c(-c4ccc(OC(F)F)cc4)cnc23)ccc1C(=O)N1CCC(C(=O)N(C)CC(O)CO)CC1 (stereo not shown) [Example 313, 1-[4-[[3-[4-(difluoromethoxy)phenyl]imi-dazo[1,2-a]pyrazin-8-yl]amino]-2-methylbenzoyl]-N-(2,3-dihydroxypropyl)-N-methylpiperidine-4-carboxamide]",230
–,"CCNCC(=O)N1CCN(C(=O)c2ccc(Nc3nccn4c(-c5ccc(OC(F)F)cc5)cnc34)cc2C)CC1 [Example 314, 1-[4-[4-[[3-[4-(difluoromethoxy)phenyl]imi-dazo[1,2-a]pyrazin-8-yl]amino]-2-methylbenzoyl]piperazin-1-yl]-2-(ethylamino)ethanone; hydro-chloride]",230
–,"Cc1cc(Nc2nccn3c(-c4ccc(OC(F)F)cc4)cnc23)ccc1C(=O)N1CCN(C(=O)[C@H]2CNCCO2)CC1 [Example 315, [4-[[3-[4-(difluoromethoxy)phenyl]imi-dazo[1,2-a]pyrazin-8-yl]amino]-2-methylphenyl]-[4-[(2R)-morpholine-2-carbonyl]piperazin-1-yl]methanone; hydrochloride]",240
–,"Cc1cc(Nc2nccn3c(-c4ccc(OC(F)F)cc4)cnc23)ccc1C(=O)N1CCN(C(=O)CNC(=N)N)CC1 [Example 316, 1-[2-[4-[4-[[3-[4-(difluoromethoxy)phenyl]imi-dazo[1,2-a]pyrazin-8-yl]amino]-2-methylbenzoyl]piperazin-1-yl]-2-oxoethyl]guanidine; formic acid]",240
–,"Cc1cc(Nc2nccn3c(-c4ccc(OC(F)F)cc4)cnc23)ccc1C(=O)N1CCN(C(=O)[C@@H](N)C(C)C)CC1 [Example 317, (2S)-2-amino-1-[4-[4-[[3-[4-(difluoromethoxy)phenyl]imi-dazo[1,2-a]pyrazin-8-yl]amino]-2-methylbenzyol]piperazin-1-yl]-3-methylbutan-1-one; hydrochloride]",240
–,"Cc1cc(Nc2nccn3c(-c4ccc(OC(F)F)cc4)cnc23)ccc1C(=O)N1CCC(C(=O)N2C3CCC2CNC3)CC1 [Example 318, [4-(3,8-diazabicyclo[3.2.1]octane-8-carbonyl)piperidin-1-yl]-[4-[[3-[4-(difluoromethoxy)phenyl]imi-dazo[1,2-a]pyrazin-8-yl]amino]-2-methylphenyl]methanone; hy-drochloride]",250
–,"Cc1cc(Nc2nccn3c(-c4ccc(OC(F)F)cc4)cnc23)ccc1C(=O)N1CCN(C(=O)[C@H]2[C@@H]3CNC[C@@H]32)CC1 [Example 319, [4-[[3-[4-(difluoromethoxy)phenyl]imi-dazo[1,2-a]pyrazin-8-yl]amino]-2-methylphenyl]-[4-[rac-(1R,5S)-3-azabicyclo[3.1.0]hexane-6-carbonyl]piperazin-1-yl]methanone; hydrochloride]",260
–,"CNCC(=O)N1CCN(C(=O)c2ccc(Nc3nccn4c(-c5ccc(OC(F)F)cc5)cnc34)cc2C)CC1 [Example 320, 1-[4-[4-[[3-[4-(difluoromethoxy)phenyl]imi-dazo[1,2-a]pyrazin-8-yl]amino]-2-methylbenzoyl]piperazin-1-yl]-2-(methylamino)ethanone; hy-drochloride]",280
–,"CNCCNC(=O)C1CCN(C(=O)c2ccc(Nc3nccn4c(-c5ccc(OC)c(F)c5F)cnc34)cc2C)CC1 [Example 321, 1-[4-[[3-(2,3-difluoro-4-methoxyphenyl)imidazo[1,2-a]pyrazin-8-yl]amino]-2-methylbenzoyl]-N-[2-(methylamino)ethyl]piperidine-4-carboxamide; hydrochloride]",280
280,"CNCC(=O)N1CCN(C(=O)c2ccc(Nc3nccn4c(-c5ccc(OC)c(Cl)c5)cnc34)cc2C)CC1 [Example 322, 1-[4-[4-[[3-(3-chloro-4-methoxyphenyl)imidazo[1,2-a]pyrazin-8-yl]amino]-2-methylbenzoyl]piperazin-1-yl]-2-(methylamino)ethanone; hy-drochloride]",–

# — patent US20230011869A1 (Hoffmann-La Roche Inc., priority 2018, published 2023)
